Test results as given in the NIST ThermoML archive (doi:10.1016/j.jct.2006.01.015).

Assay: xn = mol fraction of the nth substance listed
Details: 101 kPa, Liquid

NC=O [formamide] + CC#N
mass density [kg/m3]
Details | 293.15 K | 298.15 K | 303.15 K | 308.15 K | 313.15 K | 318.15 K
x2 = 0 | 1133 | 1129 | 1125 | 1121 | 1117 | 1113
x2 = 0.0764 | 1104.3 | 1099.7 | 1095.1 | 1090.5 | 1085.9 | 1081.3
x2 = 0.161 | 1073.2 | 1068.1 | 1063 | 1057.9 | 1052.8 | 1047.7
x2 = 0.2485 | 1041.1 | 1035.7 | 1030.3 | 1024.7 | 1019.3 | 1013.9
x2 = 0.2976 | 1022.9 | 1017.3 | 1011.7 | 1006.1 | 1000.5 | 994.9
x2 = 0.3444 | 1005.4 | 999.7 | 994 | 988.3 | 982.6 | 976.9
x2 = 0.412 | 980.1 | 974.3 | 968.5 | 962.7 | 956.9 | 951.1
x2 = 0.4728 | 957.8 | 951.9 | 946 | 940.2 | 934.3 | 928.3
x2 = 0.5336 | 935.9 | 930 | 924.1 | 918.2 | 912.3 | 906.4
x2 = 0.5862 | 917.2 | 911.3 | 905.4 | 899.6 | 893.7 | 887.8
x2 = 0.6388 | 898.9 | 893 | 887.1 | 881.3 | 875.4 | 869.5
x2 = 0.6994 | 878 | 872.2 | 866.4 | 860.6 | 854.8 | 849
x2 = 0.7554 | 859.1 | 853.4 | 847.7 | 842 | 836.3 | 830.4
x2 = 0.8143 | 839.6 | 834 | 828.1 | 822.6 | 817 | 811.4
x2 = 0.8754 | 820 | 814.5 | 809 | 803.5 | 798 | 792.5
x2 = 0.9398 | 800.1 | 794.7 | 789.2 | 783.8 | 778.4 | 773
